Data reported in ChEMBL document CHEMBL4402608 (J Med Chem, 2020).

Assays:
[1] = molecular target: 5-hydroxytryptamine receptor 2A (Homo sapiens, UniProt P28223); experiment: Displacement of [3H]-Ketanserin from 5HT2A receptor (unknown origin) measured after 90 mins by microbeta scintillation counting method
[2] = molecular target: 5-hydroxytryptamine receptor 2C (Homo sapiens, UniProt P28335); experiment: Displacement of [3H]-Mesulergine from recombinant human 5HT2C receptor expressed in HEK cell membranes measured after 90 mins by microbeta scintillation counting method
[3] = molecular target: Sodium-dependent dopamine transporter (Homo sapiens, UniProt Q01959); experiment: Displacement of [3H]-Win35428 from human DAT expressed in stable HEK cell membranes after 90 mins by microbeta scintillation counting method
[4] = molecular target: Kappa-type opioid receptor (Homo sapiens, UniProt P41145); experiment: Displacement of [3H]-U69593 from KOR (unknown origin) measured after 90 mins by microbeta scintillation counting method
[5] = molecular target: Muscarinic acetylcholine receptor M4 (Homo sapiens, UniProt P08173); experiment: Displacement of [3H]-QNB/[3H]-NMS from human muscarinic M4 receptor expressed in stable CHO cell membranes after 90 mins by microbeta scintillation counting method
Mu-type opioid receptor = Mu-type opioid receptor (Homo sapiens, UniProt P35372); experiment: Displacement of [3H]-DAMGO from recombinant human MOR stably expressed in HEK cell membranes measured after 90 mins by microbeta scintillation counting method
[6] = molecular target: Sodium-dependent noradrenaline transporter (Homo sapiens, UniProt P23975); experiment: Displacement of [3H]-Nisoxetine from human NET receptor expressed in stable HEK cell membranes after 90 mins by microbeta scintillation counting method
5HT2B receptor = 5HT2B receptor (Homo sapiens, UniProt P41595); experiment: Displacement of [3H]-LSD from recombinant human 5HT2B receptor stably expressed in HEK cell membranes at 10 uM measured after 90 mins by microbeta scintillation counting method relative to control; conditions: probe [3H]-LSD
[7] = molecular target: 5HT3 receptor (5-hydroxytryptamine receptor 3A) (Homo sapiens, UniProt P46098); experiment: Displacement of [3H]GR65630 from recombinant human 5HT3 receptor transiently expressed in HEKT cell membranes at 10 uM measured after 90 mins by microbeta scintillation counting method relative to control; conditions: probe [3H]GR65630
5HT6 receptor = 5HT6 receptor (Homo sapiens, UniProt P50406); experiment: Displacement of [3H]-LSD from recombinant human 5HT6 receptor stably expressed in HEK cell membranes at 10 uM measured after 90 mins by microbeta scintillation counting method relative to control; conditions: probe [3H]-LSD
[8] = molecular target: T1, Alpha-1B adrenergic receptor (Homo sapiens, UniProt P35368); experiment: Displacement of [3H]-prazosin from recombinant human alpha1B adrenergic receptor transiently expressed in HEKT cell membranes at 10 uM measured after 90 mins by microbeta scintillation counting method relative to control; conditions: probe [3H]-prazosin
T1 sequence (P35368 whole entry): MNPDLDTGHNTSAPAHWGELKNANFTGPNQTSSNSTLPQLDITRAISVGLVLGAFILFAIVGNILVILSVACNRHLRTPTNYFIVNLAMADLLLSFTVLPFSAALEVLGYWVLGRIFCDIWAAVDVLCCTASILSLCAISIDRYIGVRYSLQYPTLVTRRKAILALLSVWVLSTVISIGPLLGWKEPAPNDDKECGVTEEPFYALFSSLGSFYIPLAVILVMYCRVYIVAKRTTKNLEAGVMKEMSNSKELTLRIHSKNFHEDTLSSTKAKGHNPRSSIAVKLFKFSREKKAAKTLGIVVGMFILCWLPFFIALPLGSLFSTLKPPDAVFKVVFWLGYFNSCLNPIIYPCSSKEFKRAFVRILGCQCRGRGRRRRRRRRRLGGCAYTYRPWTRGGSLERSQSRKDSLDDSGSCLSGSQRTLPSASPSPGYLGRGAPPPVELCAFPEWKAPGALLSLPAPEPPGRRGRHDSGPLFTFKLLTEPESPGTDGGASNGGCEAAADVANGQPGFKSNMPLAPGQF

[9] = molecular target: Beta-1 adrenergic receptor (Homo sapiens, UniProt P08588); experiment: Displacement of [125I]-pindolol from recombinant human beta1 adrenergic receptor expressed in CHO Flp-In cell membranes at 10 uM measured after 90 mins by microbeta scintillation counting method relative to control; conditions: probe [125I]-pindolol
[10] = molecular target: beta3 adrenergic receptor (Homo sapiens, UniProt P13945); experiment: Displacement of [3H]-CGP12177 from recombinant human beta3 adrenergic receptor expressed in HEK Flp-In cell membranes at 10 uM measured after 90 mins by microbeta scintillation counting method relative to control; conditions: probe [3H]-CGP12177
dopamine D4 receptor = dopamine D4 receptor (Homo sapiens, UniProt P21917); experiment: Displacement of [3H]-N-methylspiperone from recombinant human D4 receptor stably expressed in HEK cell membranes at 10 uM measured after 90 mins by microbeta scintillation counting method relative to control; conditions: probe [3H]-N-methylspiperone
[11] = molecular target: delta opioid receptor (DOR) (Homo sapiens, UniProt P41143); experiment: Displacement of [3H]-DADLE from recombinant human DOR stably expressed in HEK cell membranes at 10 uM measured after 90 mins by microbeta scintillation counting method relative to control; conditions: HEK cell membranes stably expressing recombinant human DOR, probe [3H]-DADLE
Histamine H1 receptor = Histamine H1 receptor (Homo sapiens, UniProt P35367); experiment: Displacement of [3H]-pyrilamine from human histamine H1 receptor expressed in stable HEK cell membranes at 10 uM after 90 mins by microbeta scintillation counting method relative to control; conditions: probe [3H]-pyrilamine
Histamine H3 receptor = Histamine H3 receptor (Homo sapiens, UniProt Q9Y5N1); experiment: Displacement of [3H]-alpha-methylhistamine from recombinant human histamine H3 receptor expressed in HEK Flp-In cell membranes at 10 uM measured after 90 mins by microbeta scintillation counting method relative to control; conditions: probe [3H]-alpha-methylhistamine
muscarinic M2 receptor = muscarinic M2 receptor (Homo sapiens, UniProt P08172); experiment: Displacement of [3H]-QNB/[3H]-NMS from human muscarinic M2 receptor expressed in stable CHO cell membranes at 10 uM after 90 mins by microbeta scintillation counting method relative to control; conditions: probe [3H]-QNB/[3H]-NMS
muscarinic M4 receptor = muscarinic M4 receptor (Homo sapiens, UniProt P08173); experiment: Displacement of [3H]-QNB/[3H]-NMS from human muscarinic M4 receptor expressed in stable CHO cell membranes at 10 uM after 90 mins by microbeta scintillation counting method relative to control; conditions: probe [3H]-QNB/[3H]-NMS
[12] = molecular target: noradrenaline transporter (NET) (Homo sapiens, UniProt P23975); experiment: Displacement of [3H]-Nisoxetine from human NET receptor expressed in stable HEK cell membranes at 10 uM after 90 mins by microbeta scintillation counting method relative to control; conditions: stable HEK cell membranes expressing human NET, probe [3H]-Nisoxetine
sigma 2 receptor = sigma 2 receptor (Homo sapiens, UniProt Q5BJF2); experiment: Displacement of [3H]-DTG from sigma 2 receptor (unknown origin) at 10 uM measured after 90 mins by microbeta counting analysis relative to control; conditions: probe [3H]-DTG
dopamine D1 receptor = dopamine D1 receptor (Homo sapiens, UniProt P21728); experiment: in vitro; conditions: probe [3H]-SCH23390

## CCCN(CC[C@]1(O)C[C@H](NC(=O)c2ccc3ccccc3c2)C1)[C@H]1CCc2nc(N)sc2C1
[1]; read-out: Ki
  Ki: 2840 nM
[2]; read-out: Ki
  Ki: 762 nM
[3]; read-out: Ki
  Ki: 205 nM
[4]; read-out: Ki
  Ki: > 10000 nM
[5]; read-out: Ki
  Ki: 2280 nM
Mu-type opioid receptor; read-out: Ki
  Ki: 745 nM
[6]; read-out: Ki
  Ki: 436 nM
5HT2B receptor
  inhibition at […], 10 µM: > 50%
[7]
  inhibition at […], 10 µM: < 50%
5HT6 receptor
  inhibition at […], 10 µM: < 50%
[8]
  inhibition at […], 10 µM: > 50%
[9]
  inhibition at […], 10 µM: < 50%
[10]
  inhibition at […], 10 µM: < 50%
Dopamine D4 receptor
  inhibition at […], 10 µM: > 50%
[11]
  inhibition at […], 10 µM: < 50%
Histamine H1 receptor
  inhibition at […], 10 µM: > 50%
Histamine H3 receptor
  inhibition at […], 10 µM: > 50%
Muscarinic M2 receptor
  inhibition at […], 10 µM: < 50%
Muscarinic M4 receptor
  inhibition at […], 10 µM: > 50%
[12]
  inhibition at […], 10 µM: > 50%
Sigma 2 receptor
  inhibition at […], 10 µM: < 50%
Dopamine D1 receptor
  inhibition at […], 10 µM: < 50%

## CCCN[C@H]1CCc2nc(N)sc2C1 [PRAMIPEXOLE]
[1]
  Ki: Not Active
[2]
  Ki: Not Active
[3]
  Ki: Not Active
[4]
  Ki: Not Active
[5]; cho
  Ki: Not Active
Mu-type opioid receptor
  Ki: Not Active
[6]
  Ki: Not Active
5HT2B receptor
  inhibition at […], 10 µM: < 50%
[7]
  inhibition at […], 10 µM: > 50%
5HT6 receptor
  inhibition at […], 10 µM: > 50%
[8]
  inhibition at […], 10 µM: < 50%
[9]
  inhibition at […], 10 µM: < 50%
[10]
  inhibition at […], 10 µM: > 50%
Dopamine D4 receptor
  inhibition at […], 10 µM: > 50%
[11]
  inhibition at […], 10 µM: > 50%
Histamine H1 receptor
  inhibition at […], 10 µM: < 50%
Histamine H3 receptor
  inhibition at […], 10 µM: < 50%
Muscarinic M2 receptor
  inhibition at […], 10 µM: > 50%
Muscarinic M4 receptor
  inhibition at […], 10 µM: < 50%
[12]
  inhibition at […], 10 µM: < 50%
Sigma 2 receptor
  inhibition at […], 10 µM: < 50%
Dopamine D1 receptor
  inhibition at […], 10 µM: > 50%
